In patent US20110070190A1 (Roche Palo Alto LLC, priority 2009, published 2011):
pIC50: −log10 of the molar value.

Target: T1, HCV polymerase (NS5B570n-Con1) (Hepatitis C virus genotype 1b, UniProt Q9WMX2)
T1 construct: a 21 amino acid C-terminal deletion of full-length HCV polymerase; made in house; host or cells: E. coli BL21(DE3) pLysS, plasmid pET17b
Experiment: HCV NS5B RNA polymerase activity (incorporation of radiolabeled nucleotide into acid insoluble RNA)
Type: biochemical, HCV Con1 strain
Method: The enzymatic activity of HCV polymerase (NS5B570n-Con1) was measured as the incorporation of radiolabeled nucleotide monophosphates into acid insoluble RNA products. Unincorporated radiolabeled substrate was removed by filtration and scintillant was added to the washed and dried filter plate containing radiolabeled RNA product. The amount of RNA product generated by NS5B570n-Con1 at the end of the reaction was directly proportional to the amount of light emitted by the scintillant.
The HCV polymerase used in the enzymatic activity assay is a 21 amino acid C-terminal deletion of full-length HCV polymerase derived from HCV Con1 strain, genotype 1b (GenBank accession number AJ242654) (NS5B570n-Con1). The NS5B570n-Con1 was sub-cloned downstream to the T7 promoter of the plasmid expression construct pET17b and transformed into E. coli strain BL21(DE3) pLysS for protein expression. A single colony was used to start an innoculum for a 10 L culture in LB media supplemented with 100 μg/mL ampicillin at 37° C. Protein expression was induced by the addition of 0.25 mM isopropyl-β-D-thiogalactopyranoside (IPTG) when the optical density of the culture at […] was 0.8. Induction of protein expression was carried out at 30° C. for 16 h after which the cells were harvested by centrifugation. NS5B570n-Con1 was purified to homogeneity using a three-column purification protocol including subsequent column chromatography on Ni-NTA, SP-Sepharose HP and Superdex 75 resins.
Enzymatic reactions in the presence of cIRES RNA template (see paragraph [00213]) contained 20 nM cIRES RNA, 20 nM NS5B570n-Con1 enzyme, 0.5 μCi of tritiated UTP (Perkin Elmer catalog no. TRK-412; specific activity: 30 to 60 Ci/mmol;), 1 μM each ATP, CTP, and GTP, 40 mM Tris-HCl pH 8.0, 40 mM NaCl, 4 mM DTT (dithiothreitol), 4 mM MgCl2, 5 μl of compound serial diluted in DMSO, and nuclease-free water to a final reaction volume of 50 μl. Enzymatic reactions in the presence of poly A RNA template (see paragraph [00213]) contained 20 nM Poly A:oligo(rU)16 premixed (see section 0004), 20 nM NS5B570n-Con1 enzyme, 1 μCi of tritiated UTP (Perkin Elmer catalog no. TRK-412; specific activity: 30 to 60 Ci/mmol), 40 mM Tris-HCl pH 8.0, 40 mM NaCl, 4 mM DTT (dithiothreitol), 4 mM MgCl2, 5 μl of compound serial diluted in DMSO, and nuclease-free water to a final reaction volume of 50 μl. Reaction mixtures were assembled in 96-well filter plates (cat #MADVN0B, Millipore Co.) and incubated for 2 h at 30° C. Reactions were stopped by addition of 10% final (v/v) trichloroacetic acid and incubated for 40 min at 4° C. Reactions were filtered, washed with 8 reaction volumes of 10% (v/v) trichloroacetic acetic acid, 4 reaction volumes of 70% (v/v) ethanol, air dried, and 25 μl of scintillant (Microscint 20, Perkin-Elmer) was added to each reaction well.
Two RNA templates were used to assay compounds described herein. The cIRES RNA template was 377 nucleotide long and consisted of a partial complementary sequence (36 nucleotides) of the core protein, followed by 341 nucleotide of the complementary sequence of the internal ribosome entry site. The poly A RNA template (GE Amersham catalog number 27-4110) was a homopolymeric RNA pre-annealed to a oligo(rU)16 primer at a molar ratio of 3-to-1 (primer-template).
The amount of light emitted from the scintillant was converted to counts per minute (CPM) on a Topcount® plate reader (Perkin-Elmer, Energy Range: Low, Efficiency Mode: Normal, Count Time: 1 min, Background Subtract: none, Cross talk reduction: Off).
Data was analyzed in Excel® (Microsoft®) and ActivityBase® (Idbs®). The reaction in the absence of enzyme was used to determine the background signal, which was subtracted from the enzymatic reactions. Positive control reactions were performed in the absence of compound, from which the background corrected activity was set as 100% polymerase activity. All data was expressed as a percentage of the positive control. […]

Row | SMILES | pIC50
1 | O=C(Nc1ccc(-c2cc3c(s2)c(=O)ncn3Cc2ccc(Cl)cc2)cc1Cl)c1ccccn1 [Compound I-1, Pyridine-2-carboxylic acid {2-chloro-4-[1-(4-chloro-benzyl)-4-oxo-1,4-dihydro-thieno[3,2-d]pyrimidin-6-yl]-phenyl}-amide] | 8.70
2 | Cc1ccc(C(=O)Nc2ccc(-c3cc4c(s3)c(=O)ncn4Cc3ccc(Cl)cc3)cc2)o1 [Compound I-3, 5-Methyl-furan-2-carboxylic acid {4-[1-(4-chloro-benzyl)-4-oxo-1,4-dihydro-thieno[3,2-d]pyrimidin-6-yl]-phenyl}-amide] | 8.05
3 | Cc1cc(N)n2nc(-c3ccc(-c4cc5c(s4)c(=O)ncn5C[C@H]4CC[C@@H](C)CC4)cc3Cl)cc2n1 [Compound I-4, 6-[4-(7-amino-5-methyl-pyrazolo[1,5-a]pyrimidin-2-yl)-3-chloro-phenyl]-1-(4-methyl-cyclohexylmethyl)-1H-thieno[3,2-d]pyrimidin-4-one] | 8.00
4 | O=c1ncn(Cc2ccc(Cl)cc2)c2cc(-c3ccc(OCc4ccc(F)cc4)cc3)sc12 [Compound I-5, 1-(4-chloro-benzyl)-6-[4-(4-fluoro-benzyloxy)-phenyl]-1H-thieno[3,2-d]pyrimidin-4-one] | 7.89
5 | O=C(Nc1ccc(-c2cc3c(s2)c(=O)ncn3Cc2ccc(Cl)cc2)cc1)c1cc(F)ccc1F [Compound I-7, N-{4-[1-(4-Chloro-benzyl)-4-oxo-1,4-dihydro-thieno[3,2-d]pyrimidin-6-yl]-phenyl}-2,5-difluoro-benzamide] | 7.68
6 | Nc1nccc(C(=O)Nc2ccc(-c3cc4c(s3)c(=O)ncn4Cc3ccc(Cl)cc3)cc2)n1 [Compound I-8, 2-Amino-pyrimidine-4-carboxylic acid {4-[1-(4-chloro-benzyl)-4-oxo-1,4-dihydro-thieno[3,2-d]pyrimidin-6-yl]-phenyl}-amide] | 7.59
7 | Nc1cc(C(=O)Nc2ccc(-c3cc4c(s3)c(=O)ncn4Cc3ccc(Cl)cc3)cc2)ccn1 [Compound I-9, 2-Amino-N-{4-[1-(4-chloro-benzyl)-4-oxo-1,4-dihydro-thieno[3,2-d]pyrimidin-6-yl]-phenyl}-isonicotinamide] | 7.54
8 | Nc1nccc(-c2ccc(-c3cc4c(s3)c(=O)ncn4Cc3ccc(Cl)cc3)cc2)n1 [Compound I-10, 6-[4-(2-Amino-pyrimidin-4-yl)-phenyl]-1-(4-chloro-benzyl)-1H-thieno[3,2-d]pyrimidin-4-one] | 7.54
9 | COc1ccc(COc2ccc(-c3cc4c(s3)c(=O)ncn4Cc3ccc(Cl)cc3)cc2)cc1 [Compound I-11, 1-(4-chloro-benzyl)-6-[4-(4-methoxy-benzyloxy)-phenyl]-1H-thieno[3,2-d]pyrimidin-4-one] | 7.49
10 | O=C(Nc1ccc(-c2cc3c(s2)c(=O)ncn3Cc2ccc(Cl)cc2)cc1)c1cnccn1 [Compound I-12, Pyrazine-2-carboxylic acid {4-[1-(4-chloro-benzyl)-4-oxo-1,4-dihydro-thieno[3,2-d]pyrimidin-6-yl]-phenyl}-amide] | 7.49
11 | Cc1ccc(Cn2cnc(=O)c3sc(-c4ccc(-c5ccccc5)cc4)cc32)cc1 [Compound I-13] | 7.35
12 | O=C(Nc1ccc(-c2cc3c(s2)c(=O)ncn3Cc2ccc(Cl)cc2)cc1F)c1ccccc1 [Compound I-14, N-{4-[1-(4-Chloro-benzyl)-4-oxo-1,4-dihydro-thieno[3,2-d]pyrimidin-6-yl]-2-fluoro-phenyl}-benzamide] | 7.16
13 | Cc1cc(C(=O)Nc2ccc(-c3cc4c(s3)c(=O)ncn4Cc3ccc(Cl)cc3)cc2)n[nH]1 [Compound I-15, 5-Methyl-1H-pyrazole-3-carboxylic acid {4-[1-(4-chloro-benzyl)-4-oxo-1,4-dihydro-thieno[3,2-d]pyrimidin-6-yl]-phenyl}-amide] | 7.15
14 | Cc1ncoc1C(=O)Nc1ccc(-c2cc3c(s2)c(=O)ncn3Cc2ccc(Cl)cc2)cc1 [Compound I-18, 4-Methyl-oxazole-5-carboxylic acid {4-[1-(4-chloro-benzyl)-4-oxo-1,4-dihydro-thieno[3,2-d]pyrimidin-6-yl]-phenyl}-amide] | 7.11
15 | Cc1ccc(Cn2cnc(=O)c3sc(-c4ccc(-c5cc6ncccc6o5)cc4)cc32)cc1 [Compound I-19, 6-(4-Furo[3,2-b]pyridin-2-yl-phenyl)-1-(4-methyl-benzyl)-1H-thieno[3,2-d]pyrimidin-4-one] | 7.09
16 | O=c1ncn(Cc2ccc(Cl)cc2)c2cc(-c3ccc(SCc4ccccc4)cc3)sc12 [Compound I-20, 6-(4-Benzylsulfanyl-phenyl)-1-(4-chloro-benzyl)-1H-thieno[3,2-d]pyrimidin-4-one] | 6.98
17 | O=c1ncn(Cc2ccc(Cl)cc2)c2cc(-c3ccc(NCc4ccccn4)cc3)sc12 [Compound I-23] | 6.86
18 | O=c1ncn(Cc2ccc(Cl)cc2)c2cc(-c3ccc(Oc4ccccc4)cc3)sc12 [Compound I-24, 1-(4-Chloro-benzyl)-6-(4-phenoxy-phenyl)-1H-thieno[3,2-d]pyrimidin-4-one] | 6.82
19 | CCCCOc1ccc(-c2cc3c(s2)c(=O)ncn3Cc2ccc(Cl)cc2)cc1Cl [Compound I-25, 6-(4-Butoxy-3-chloro-phenyl)-1-(4-chloro-benzyl)-1H-thieno[3,2-d]pyrimidin-4-one] | 6.81
20 | COc1cccc(C(=O)Nc2ccc(-c3cc4c(s3)c(=O)ncn4Cc3ccc(Cl)cc3)cc2Cl)c1 [Compound I-26] | 6.79
21 | O=C(CCCO)Nc1ccc(-c2cc3c(s2)c(=O)ncn3Cc2ccc(Cl)cc2)cc1Cl [Compound I-30, N-{2-Chloro-4-[1-(4-chloro-benzyl)-4-oxo-1,4-dihydro-thieno[3,2-d]pyrimidin-6-yl]-phenyl}-4-hydroxy-butyramide] | 6.55
22 | O=C(Nc1ccc(-c2cc3c(s2)c(=O)ncn3Cc2ccc(Cl)cc2)cc1)c1ccno1 [Compound I-32, Isoxazole-5-carboxylic acid {4-[1-(4-chloro-benzyl)-4-oxo-1,4-dihydro-thieno[3,2-d]pyrimidin-6-yl]-phenyl}-amide] | 6.51
23 | Cc1nnc(-c2ccc(-c3cc4c(s3)c(=O)ncn4Cc3ccc(Cl)cc3)cc2)o1 [Compound I-33, 1-(4-Chloro-benzyl)-6-[4-(5-methyl-[1,3,4]oxadiazol-2-yl)-phenyl]-1H-thieno[3,2d]pyrimidin-4-one] | 6.41
24 | CC(CCO)C(=O)Nc1ccc(-c2cc3c(s2)c(=O)ncn3Cc2ccc(Cl)cc2)cc1Cl (stereo not drawn) [Compound I-35] | 6.29
25 | Cc1ccc(Cn2cnc(=O)c3sc(-c4ccc(C(=O)O)cc4)cc32)cc1 [Compound I-36] | 6.27
26 | CC(=O)Nc1ccc(-c2cc3c(s2)c(=O)ncn3Cc2ccc(Cl)cc2)cc1 [Compound I-37, N-{4-[1-(4-Chloro-benzyl)-4-oxo-1,4-dihydro-thieno[3,2-d]pyrimidin-6-yl]-phenyl}-acetamide] | 6.23
27 | O=C(Nc1ccc(-c2cc3c(s2)c(=O)ncn3Cc2ccc(Cl)cc2)cc1)c1ccccn1 [Compound I-39, Pyridine-2-carboxylic acid {4-[1-(4-chloro-benzyl)-4-oxo-1,4-dihydro-thieno[3,2-d]pyrimidin-6-yl]-phenyl}-amide] | 8.30
